Each compound was assayed against full length USP7 (Homo sapiens (Human), UniProt Q93009) (assay: Ub-AMC enzymatic assay with full-length USP7). Details: Table 1; 6 hours pre-incubation, Ub-AMC; read-out: IC50 (nM), USP7 activity in USP7 assay.
Type: biochemical
Experimental: Both constructs were overexpressed in E. coli BL21 (DE3). Cells were grown at 37° C. to an OD of 0.9, cooled to 16° C., induced with 500 μM isopropyl-1-thio-D-galactopyranoside (IPTG), incubated overnight at 16° C., collected by centrifugation, and stored at −80° C. Cell pellets were sonicated in lysis buffer (25 mM Tris pH 8, 1 M NaCl, and 10 mM BME) supplemented with 10 μg/ml phenylmethanesulfonylfluoride (PMSF) and the resulting lysate was centrifuged at 30,000×g for 40 min. Ni-NTA beads (Qiagen) were mixed with lysate supernatant for 2 hours, and washed with lysis buffer supplemented with 25 mM imidazole. The bound protein was eluted with lysis buffer supplemented with 300 mM imidazole. The sample was then concentrated to 1 ml (30 kDa concentrator; Amicon Ultra, Millipore), and run on a Superdex 200 (GE healthcare) in buffer containing 25 mM HEPES pH 7.5, 200 mM NaCl, and 1 mM DTT. Fractions were pooled, concentrated and frozen at −80° C.
Full length USP7 was tested for its activity in Ubiquitin-AMC assay in presence or absence of inhibitors. USP7 (5 nM) was pre-incubated for 6 hours at room temperature with different concentrations of inhibitors or DMSO as a control in 50 mM HEPES pH 7.5, 0.5 mM EDTA, 11 μM ovalbumin, and 5 mM DTT. Ubiquitin-AMC (Boston Biochem) was then added to a final concentration of 500 nM. The initial rate of the reaction was measured by collecting fluorescence data at one minute intervals over 30-minute period using a Clariostar fluorescence plate reader at excitation and emission wavelength of 345 and 445 nm respectively. The calculated initial rate values were plotted against inhibitor concentrations to determine IC50s. All the experimental data were plotted using Prism GraphPad. All assays for each compound were performed at least twice for each compound.

Sequence of full length USP7 (Q93009 whole entry): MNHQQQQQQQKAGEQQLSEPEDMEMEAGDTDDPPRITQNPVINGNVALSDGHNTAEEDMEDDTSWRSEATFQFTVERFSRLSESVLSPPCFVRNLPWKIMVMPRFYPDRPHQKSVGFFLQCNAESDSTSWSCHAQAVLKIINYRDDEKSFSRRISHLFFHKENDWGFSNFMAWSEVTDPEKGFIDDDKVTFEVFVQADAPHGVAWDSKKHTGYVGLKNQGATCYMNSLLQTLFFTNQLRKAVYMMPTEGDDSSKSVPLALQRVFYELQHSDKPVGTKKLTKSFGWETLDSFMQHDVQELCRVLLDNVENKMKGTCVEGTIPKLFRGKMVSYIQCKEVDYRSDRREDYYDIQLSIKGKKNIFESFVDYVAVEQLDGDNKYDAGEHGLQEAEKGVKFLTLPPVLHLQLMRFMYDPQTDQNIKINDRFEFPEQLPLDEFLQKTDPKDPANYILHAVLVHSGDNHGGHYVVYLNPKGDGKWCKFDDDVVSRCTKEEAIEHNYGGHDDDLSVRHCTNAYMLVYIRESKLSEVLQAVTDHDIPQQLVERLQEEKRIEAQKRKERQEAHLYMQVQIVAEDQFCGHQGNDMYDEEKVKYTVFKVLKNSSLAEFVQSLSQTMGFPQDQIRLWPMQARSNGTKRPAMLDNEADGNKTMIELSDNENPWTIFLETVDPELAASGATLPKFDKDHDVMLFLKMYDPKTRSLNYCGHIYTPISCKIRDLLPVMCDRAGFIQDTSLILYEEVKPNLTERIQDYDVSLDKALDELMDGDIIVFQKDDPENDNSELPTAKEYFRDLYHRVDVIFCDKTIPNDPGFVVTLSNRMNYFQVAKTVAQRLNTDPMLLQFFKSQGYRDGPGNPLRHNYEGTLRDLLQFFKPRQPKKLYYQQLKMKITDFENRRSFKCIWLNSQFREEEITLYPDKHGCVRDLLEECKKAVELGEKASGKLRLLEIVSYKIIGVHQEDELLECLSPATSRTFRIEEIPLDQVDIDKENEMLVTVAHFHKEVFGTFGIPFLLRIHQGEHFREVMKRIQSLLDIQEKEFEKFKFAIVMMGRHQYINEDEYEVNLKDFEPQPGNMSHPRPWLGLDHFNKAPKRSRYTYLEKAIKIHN

IC50 [nM] | SMILES
20 to 100 | CN(C)CCC(=O)Nc1ccc2c(=O)n(CC3(O)CCN(C(=O)CCCCNC(=O)c4ccc5c(Cl)c6c(nc5c4)CCCC6)CC3)cnc2c1
100 to 1000 | O=C(CCN1CCOCC1)Nc1ccc2c(=O)n(CC3(O)CCN(C(=O)CCCCNC(=O)c4ccc5c(Cl)c6c(nc5c4)CCCC6)CC3)cnc2c1
20 to 100 | O=C(CCn1ccnc1)Nc1ccc2c(=O)n(CC3(O)CCN(C(=O)CCCCNC(=O)c4ccc5c(Cl)c6c(nc5c4)CCCC6)CC3)cnc2c1
< 20 | CN1CCN(CCC(=O)Nc2ccc3c(=O)n(CC4(O)CCN(C(=O)C(CCCNC(=O)c5ccc6c(Cl)c7c(nc6c5)CCCC7)Cc5ccccc5)CC4)cnc3c2)CC1 (centres unmarked)
> 1000 | CN1CCN(CCC(=O)Nc2ccc3c(=O)n(CC4(O)CCN(C(=O)CNC(=O)c5ccc6c(Cl)c7c(nc6c5)CCCC7)CC4)cnc3c2)CC1
100 to 1000 | CN1CCN(CCC(=O)Nc2ccc3c(=O)n(CC4(O)CCN(C(=O)CCNC(=O)c5ccc6c(Cl)c7c(nc6c5)CCCC7)CC4)cnc3c2)CC1
20 to 100 | CN1CCN(CCC(=O)Nc2ccc3c(=O)n(CC4(O)CCN(C(=O)CCCNC(=O)c5ccc6c(Cl)c7c(nc6c5)CCCC7)CC4)cnc3c2)CC1
20 to 100 | CN1CCN(CCC(=O)Nc2ccc3c(=O)n(CC4(O)CCN(C(=O)CCCCCNC(=O)c5ccc6nc7c(c(Cl)c6c5)CCCC7)CC4)cnc3c2)CC1
< 20 | CN1CCN(CCC(=O)Nc2ccc3c(=O)n(CC4(O)CCN(C(=O)C(CCNC(=O)c5ccc6c(Cl)c7c(nc6c5)CCCC7)Cc5ccccc5)CC4)cnc3c2)CC1 (centres unmarked)
20 to 100 | CN1CCN(CCC(=O)Nc2ccc3c(=O)n(CC4(O)CCN(C(=O)C(CCCNC(=O)c5ccc6c(c5)CCCN6C(=O)CCl)Cc5ccccc5)CC4)cnc3c2)CC1 (centres unmarked)
20 to 100 | C=CS(=O)(=O)N1CCCc2cc(C(=O)NCCCC(Cc3ccccc3)C(=O)N3CCC(O)(Cn4cnc5cc(NC(=O)CCN6CCN(C)CC6)ccc5c4=O)CC3)ccc21 (centres unmarked)
> 1000 | CN1CCN(CCC(=O)Nc2ccc3c(=O)n(CC4(O)CCN(C(=O)C(CCCNC(=O)c5cnccc5Cl)Cc5ccccc5)CC4)cnc3c2)CC1 (centres unmarked)
< 20 | CN1CCN(CCC(=O)Nc2ccc3c(=O)n(CC4(O)CCN(C(=O)C(CCCNC(=O)c5ccc6c(Cl)c7c(nc6c5)CCCCC7)Cc5ccccc5)CC4)cnc3c2)CC1 (centres unmarked)
< 20 | CN1CCN(CCC(=O)Nc2ccc3c(=O)n(CC4(O)CCN(C(=O)C(CCCNC(=O)c5ccc6c(Cl)c7c(nc6c5)CCC7)Cc5ccccc5)CC4)cnc3c2)CC1 (centres unmarked)
100 to 1000 | CN1CCN(CCC(=O)Nc2ccc3c(=O)n(CC4(O)CCN(C(=O)C(CCCNC(=O)C5(C#N)CC5)Cc5ccccc5)CC4)cnc3c2)CC1 (centres unmarked)
> 1000 | CN1CCN(CCC(=O)Nc2ccc3c(=O)n(CC4(O)CCN(C(=O)C(CCCNC(=O)c5cc(C(=O)CCl)cn5C)Cc5ccccc5)CC4)cnc3c2)CC1 (centres unmarked)
< 20 | CN1CCN(CCC(=O)Nc2ccc3c(=O)n(CC4(O)CCN(C(=O)[C@H](Cc5ccccc5)NC(=O)CNC(=O)c5ccc6c(Cl)c7c(nc6c5)CCCC7)CC4)cnc3c2)CC1
< 20 | CN1CCN(CCC(=O)Nc2ccc3c(=O)n(CC4(O)CCN(C(=O)[C@H](Cc5ccccc5)NC(=O)CCNC(=O)c5ccc6c(Cl)c7c(nc6c5)CCCC7)CC4)cnc3c2)CC1
> 1000 | CN1CCN(CCC(=O)Nc2ccc3c(=O)n(CC4CCN(C(=O)C(CCCNC(=O)c5ccc6c(Cl)c7c(nc6c5)CCCC7)Cc5ccccc5)CC4)cnc3c2)CC1 (centres unmarked)
< 20 | CN1CCN(CCC(=O)Nc2ccc3c(=O)n(CC4(O)CCN(C(=O)[C@H](Cc5ccccc5)NC(=O)CN(C)C(=O)c5ccc6c(Cl)c7c(nc6c5)CCCC7)CC4)cnc3c2)CC1
< 20 | O=C(CCN1CCOCC1)Nc1ccc2c(=O)n(CC3(O)CCN(C(=O)[C@H](Cc4c[nH]cn4)NC(=O)CNC(=O)c4ccc5c(Cl)c6c(nc5c4)CCCC6)CC3)cnc2c1
< 20 | O=C(CCN1CCOCC1)Nc1ccc2c(=O)n(CC3(O)CCN(C(=O)[C@H](CC4CCCCC4)NC(=O)CNC(=O)c4ccc5c(Cl)c6c(nc5c4)CCCC6)CC3)cnc2c1
< 20 | O=C(CCN1CCOCC1)Nc1ccc2c(=O)n(CC3(O)CCN(C(=O)[C@H](Cc4cscn4)NC(=O)CNC(=O)c4ccc5c(Cl)c6c(nc5c4)CCCC6)CC3)cnc2c1
< 20 | O=C(CCN1CCOCC1)Nc1ccc2c(=O)n(CC3(O)CCN(C(=O)[C@H](Cc4cc(F)cc(F)c4)NC(=O)CNC(=O)c4ccc5c(Cl)c6c(nc5c4)CCCC6)CC3)cnc2c1
100 to 1000 | O=C(NCCC[C@@H](Cc1ccccc1)C(=O)N1CCC(O)(Cn2cnc3cc(N4CCOCC4)ccc3c2=O)CC1)c1ccc2c(Cl)c3c(nc2c1)CCCC3
> 1000 | O=C(CCN1CCOCC1)Nc1ccc2c(=O)n(CC3(O)CCN(C(=O)[C@@H](CCCNC(=O)c4ccc(/C=C/C(=O)N5CCCCC5)nc4)Cc4ccccc4)CC3)cnc2c1
> 1000 | CC(C)NC(=O)/C=C/c1ccc(C(=O)NCCC[C@@H](Cc2ccccc2)C(=O)N2CCC(O)(Cn3cnc4cc(NC(=O)CCN5CCOCC5)ccc4c3=O)CC2)cn1
> 1000 | CN(C)C(=O)/C=C/c1ccc(C(=O)NCCC[C@@H](Cc2ccccc2)C(=O)N2CCC(O)(Cn3cnc4cc(NC(=O)CCN5CCOCC5)ccc4c3=O)CC2)cn1

Same assay, conditions: Table 2; 6 hours pre-incubation, Ub-AMC; read-out: IC50 (μM), USP7 activity in USP7 assay

IC50 [nM] | SMILES
100 to 1000 | O=C(CCN1CCN(C(=O)c2ccc3c(Cl)c4c(nc3c2)CCCC4)CC1)N1CCC(O)(Cn2cnc3cc(Cl)ccc3c2=O)CC1
20 to 100 | O=C(CN1CCN(C(=O)c2ccc3c(Cl)c4c(nc3c2)CCCC4)CC1)N1CCC(O)(Cn2cnc3cc(Cl)ccc3c2=O)CC1
20 to 100 | C#CCNCCCC(Cc1ccccc1)C(=O)N1CCC(O)(Cn2cnc3cc(NC(=O)CCN4CCN(C)CC4)ccc3c2=O)CC1 (centres unmarked)
20 to 100 | C=CS(=O)(=O)NCCCC(Cc1ccccc1)C(=O)N1CCC(O)(Cn2cnc3cc(NC(=O)CCN4CCN(C)CC4)ccc3c2=O)CC1 (centres unmarked)
< 20 | C=CC(=O)NCCCC(Cc1ccccc1)C(=O)N1CCC(O)(Cn2cnc3cc(NC(=O)CCN4CCN(C)CC4)ccc3c2=O)CC1 (centres unmarked)
20 to 100 | CN1CCN(CCC(=O)Nc2ccc3c(=O)n(CC4(O)CCN(C(=O)C(CCCNC(=O)c5ccc(/C=C6\CCCCC6=O)cc5)Cc5ccccc5)CC4)cnc3c2)CC1 (centres unmarked)

Same assay, conditions: Table 3; 6 hours pre-incubation, Ub-AMC; read-out: IC50 (μM), USP7 activity in USP7 assay

IC50 [nM] | SMILES
20 to 100 | O=C(CCN1CCOCC1)Nc1ccc2c(=O)n(CC3(O)CCN(C(=O)[C@H](Cc4ccccc4)NC(=O)COc4cccc5c(Cl)c6c(nc45)CCCC6)CC3)cnc2c1
20 to 100 | O=C(NCCCC(Cc1ccccc1)C(=O)N1CCC(O)(Cn2cnc3cc(OCCN4CCOCC4)ccc3c2=O)CC1)c1ccc2c(Cl)c3c(nc2c1)CCCC3 (centres unmarked)
100 to 1000 | O=C(CCN1CCOCC1)Nc1ccc2c(=O)n(CC3(O)CCN(C(=O)C(CCCNC(=O)c4ccc5c(Cl)cc(C(F)(F)F)nc5c4)Cc4ccccc4)CC3)cnc2c1 (centres unmarked)
20 to 100 | CN1CCN(CCC(=O)Nc2ccc3c(=O)n(CC4(O)CCN(C(=O)[C@@H](Cc5ccccc5)NC(=O)CNC(=O)c5ccc6c(Cl)c7c(nc6c5)CCCC7)CC4)cnc3c2)CC1
20 to 100 | CN1CCN(CCC(=O)Nc2ccc3c(=O)n(CC4(O)CCN(C(=O)[C@@H](Cc5ccccc5)NC(=O)CNC(=O)c5ccc6c(Cl)ccnc6c5)CC4)cnc3c2)CC1
> 1000 | O=C(CCN1CCOCC1)Nc1ccc2c(=O)n(CC3(O)CCN(C(=O)[C@H](Cc4ccccc4)n4ccnn4)CC3)cnc2c1
> 1000 | Cc1cc(Cl)c2ccc(C(=O)NCCCC(Cc3ccccc3)C(=O)N3CCC(O)(Cn4cnc5cc(NC(=O)CCN6CCOCC6)ccc5c4=O)CC3)cc2n1 (centres unmarked)
> 1000 | O=C(CCN1CCOCC1)Nc1ccc2c(=O)n(CC3(O)CCN(C(=O)C(CCCNC(=O)c4ccc5c(O)ccnc5c4)Cc4ccccc4)CC3)cnc2c1 (centres unmarked)
> 1000 | C=CC(=O)Nc1ccccc1-c1cn([C@@H](Cc2ccccc2)C(=O)N2CCC(O)(Cn3cnc4cc(NC(=O)CCN5CCOCC5)ccc4c3=O)CC2)nn1
> 1000 | C=CC(=O)Nc1cccc(-c2cn([C@@H](Cc3ccccc3)C(=O)N3CCC(O)(Cn4cnc5cc(NC(=O)CCN6CCOCC6)ccc5c4=O)CC3)nn2)c1
20 to 100 | CN1CCN(CCC(=O)Nc2ccc3c(=O)n(CC4(O)CCN(C(=O)C(CCCNC(=O)c5ccc6c(Cl)cc(C7CCCCC7)nc6c5)Cc5ccccc5)CC4)cnc3c2)CC1 (centres unmarked)
20 to 100 | CN1CCN(CCC(=O)Nc2ccc3c(=O)n(CC4(O)CCN(C(=O)C(CCCNC(=O)c5ccc6c(Cl)cc(-c7cscn7)nc6c5)Cc5ccccc5)CC4)cnc3c2)CC1 (centres unmarked)
20 to 100 | CN1CCN(CCC(=O)Nc2ccc3c(=O)n(CC4(O)CCN(C(=O)C(CCCNC(=O)c5ccc6c(Cl)cc(-c7ccc(F)cc7)nc6c5)Cc5ccccc5)CC4)cnc3c2)CC1 (centres unmarked)
100 to 1000 | CN1CCN(CCC(=O)Nc2ccc3c(=O)n(CC4(O)CCN(C(=O)C(CCCNC(=O)c5ccc6c(Cl)cc(-c7ccccc7)nc6c5)Cc5ccccc5)CC4)cnc3c2)CC1 (centres unmarked)
> 1000 | CN1CCN(CCC(=O)Nc2ccc3c(=O)n(CC4(O)CCN(C(=O)C(CCCNC(=O)c5ccc6c(Cl)c7c(nc6c5)CCCC7)c5ccccc5)CC4)cnc3c2)CC1 (centres unmarked)
> 1000 | COc1cccc(CC(CCCNC(=O)c2ccc3c(Cl)c4c(nc3c2)CCCC4)C(=O)N2CCC(O)(Cn3cnc4cc(NC(=O)CCN5CCN(C)CC5)ccc4c3=O)CC2)c1 (centres unmarked)

From patent publication US12503453B2, “USP7 inhibition” (Dana-Farber Cancer Institute, Inc., priority 2018, dated 2025)
